Experiments:
Type in all cases: in vivo
mosquito larvae [1] = assay: Adult mosquito emergence, larvicide embedded in different coatings at different rates (FIG. 23)
Text: Referring to FIG. 23, three different coating were used to embed the larvicide pyriproxyfen at 3 different rates. Coatings were applied to plastic containers that were filled with water, before mosquito larvae were transferred to these containers.
Several different formulae (polycrylic, Polyurethane and Latex paint) have been tested as coatings for the larvicide. All coatings performed well in preventing adult emergence from larvae added to water-holding containers coated internally with the coating-embedded larvicide even with 0.0001% of the active ingredient in the coating. Water treated with 0.01% rate is considered potable by the World Health Organization (WHO).

mosquito larvae [2] = assay: Mosquito larval mortality with coating-embedded larvicide, 0-week and 20-week aging (FIGS. 17-18)
Text: FIG. 17 is a graph of mosquito larval mortality after 0-week aging with the average live mosquitoes on the vertical axis versus exposure time on the horizontal axis.
FIG. 18 is a graph of mosquito larval mortality after 20-week aging with the average live mosquitoes on the vertical axis versus exposure time on the horizontal axis.
FIG. 17 is a graph of mosquito larval mortality over 0-week aging with amount of mosquitoes on the vertical axis versus exposure time on the horizontal axis.
FIG. 18 is a graph of mosquito larval mortality over 20-week aging on the vertical axis versus exposure time on the horizontal axis.
By embedding the larvicide pyriproxyfen in a coating, the mosquito killing action is protected from degradation for more than 20 weeks.

mosquito larvae [3] = assay: Adult mosquito emergence after high volume washing of coated containers (FIG. 24); conditions: embedded in polycrylic and polyurethane coatings; washed with tap water 5×, 20×, 50× container volume, refilled with fresh water
Procedure: Referring to FIG. 24, two of the coating tested previously (refer to FIG. 23) were also tested for durability under high volume washing to see if they could stand under heavy rains. The coatings applied to plastic containers were subject to continuous washing with tap water for total volumes equivalent to 5×, 20×, and 50× the container volumes. After wards the containers were refilled with fresh water and mosquito larvae were added to the water. Adult emergence from the larvae was only observed in containers with coatings that contained no embedded larvicide. […] Coatings prevent larvicide washing off, with up to 50 times the volume of water as contained in the ovitrap. Most larvicides are applied to water and disappear when containers are emptied and re filled either naturally by rain action or by other means. The coating constantly treats new water put in containers with enough larvicide to preserve the mosquito-killing action. Both polycrylic and polyurethane protect the action of pyriproxyfen larvicide when containers coated with these materials are subjected to washing.

## CC(COc1ccc(Oc2ccccc2)cc1)Oc1ccccn1 (centres unmarked) [pyriproxyfen, Pyriproxyfen]
Mosquito larvae [1]; embedded in three different coatings at 3 rates, applied to plastic containers filled with water
  adult mosquito emergence: no emergence of mosquitoes even at low pyriproxyfen content
Mosquito larvae [1]; water standard (no coating), 3 rates
  adult mosquito emergence: mosquito emergence was only inhibited at the high pyriproxyfen level
Mosquito larvae [2]; larvicide embedded in a coating
  time for which the mosquito killing action is protected from degradation: more than 20 weeks
Mosquito larvae [2]; water in contact with coating-embedded larvicide or larvicide applied directly to container, new material or aged 20 weeks
  mosquito larval mortality / prevention of mosquito emergence: mosquito larvae start to die as they reach the pupal stage
Mosquito larvae [3]
  adult mosquito emergence after washing: prevented the emergence of adults
